Results taken from patent US12636250B2, “Microneedle array patches (MAPs), systems, and methods for manufacturing and using same” (Terrestrial Bio, Inc., priority 2024, dated 2026).
Entries after “also recorded” stand apart in the source; their conditions may differ.

Key:
[1] = Mold dissection for tip length and shell length (RTM-209); format: physicochemical; settings: comparison between GLP-1 tip formulations
Protocol: Mold Dissection for Tip Length (RTM-209): The mold dissection method uses magnified images of sectioned molds to obtain measurements and morphology of the dried tips in the molds. After tip printing and drying, a mold is cross-sectioned with a razor blade in between rows of needles. The dried tips are imaged within the needle cavities using a microscope. The tip overall length and shell length are measured by image processing. The image scale is calibrated using a stage micrometer, and lengths in micrometers are calculated from the lengths measured in pixels. The shell length as a portion of overall length is an indication of consolidation. Minimal shell length, corresponding to maximum consolidation, is preferred.

[2] = Microneedle mechanical strength, Instron compression (crush) test (TM-404); format: physicochemical; settings: for Tip strength (comparison in words): comparison between GLP-1 tip formulations

| SMILES | Tip length / shell length / Tip consolidation (comparison in words) [1] | strength per needle ([2]; GLP-086, higher (3%) concentration of Proline vs feasibility (control) formulation) [N/needle] | Tip strength (comparison in words) [2] |
| --- | --- | --- | --- |
| [Cl-].[Cl-].[Mg+2] [MgCl2] | also improved Tip consolidation |  |  |
| O=C(O)[C@@H]1CCCN1 [Proline] | did improve Tip consolidation | > 0.6 | significantly improves the mechanical strength of GLP-1 containing needles |
| [Cl-].[Na+] [NaCl] | led to better consolidation of the Tips; also recorded: significantly reduced the shell length and improved the % consolidation of the Tip |  | comparable |
| Cl.NC(CO)(CO)CO [Tris-HCl] | comparable to MOPS in terms of Tip length and strength |  | comparable to MOPS in terms of Tip length and strength |
